Reference: ChEMBL document CHEMBL1201862, “PubChem BioAssay data set” (2004)
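Dose response: 5 concentrations. Exposure: 48 h. Format: 96-well plates. Endpoint: linear interpolation; highest concentration if not reached. GI50 is the concentration that inhibits growth by half.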 The source made the active and inactive calls. Rule as the data show it: active = GI50 up to about 1.1 µM and inactive = higher.

Experiments:
Experiment in all cases: inhibition of tumour cell growth, NCI panel, 48 h
OVCAR-3 = tested on: OVCAR-3
HOP-92 = tested on: HOP-92
NCI/ADR-RES = tested on: NCI/ADR-RES
NCI-H23 = tested on: NCI-H23
M14 = tested on: M14
SK-OV-3 = tested on: SK-OV-3
DU-145 = tested on: DU-145
PC-3 = tested on: PC-3
IGROV-1 = tested on: IGROV-1
SK-MEL-28 = tested on: SK-MEL-28
OVCAR-5 = tested on: OVCAR-5
COLO 205 = tested on: COLO 205
SF-268 = tested on: SF-268
K562 = tested on: K562
LOX IMVI = tested on: LOX IMVI
UACC-257 = tested on: UACC-257
SK-MEL-5 = tested on: SK-MEL-5
HL-60 = tested on: HL-60
HT-29 = tested on: HT-29
Hs-578T = tested on: Hs-578T

Row | SMILES | GI50 (OVCAR-3) | GI50 (HOP-92) | GI50 (NCI/ADR-RES) | GI50 (NCI-H23) | GI50 (M14) | GI50 (SK-OV-3) | GI50 (DU-145) | GI50 (PC-3) | GI50 (IGROV-1) | GI50 (SK-MEL-28) | GI50 (OVCAR-5) | GI50 (COLO 205) | GI50 (SF-268) | GI50 (K562) | GI50 (LOX IMVI) | GI50 (UACC-257) | GI50 (SK-MEL-5) | GI50 (HL-60) | GI50 (HT-29) | GI50 (Hs-578T)
1 | Nc1ncnc2c1nnn2C1CCC(CP(=O)(O)O)C1 (centres undefined) | > 100 µM (inactive) | > 100 µM (inactive) | > 100 µM (inactive) | > 100 µM (inactive) | > 100 µM (inactive) | > 100 µM (inactive) | > 100 µM (inactive) | > 100 µM (inactive) | > 100 µM (inactive) | > 100 µM (inactive) | > 100 µM (inactive) | > 100 µM (inactive) | > 100 µM (inactive) | > 100 µM (inactive) | > 100 µM (inactive) | > 100 µM (inactive) | > 100 µM (inactive) | > 100 µM (inactive) | > 100 µM (inactive) | –
2 | CCOC(=O)C1=C(Nc2ccccc2)SC/C1=N\NC(=O)Cc1ccccc1 | > 100 µM (inactive) | > 100 µM (inactive) | – | > 100 µM (inactive) | > 100 µM (inactive) | > 100 µM (inactive) | – | – | > 100 µM (inactive) | > 100 µM (inactive) | > 100 µM (inactive) | > 100 µM (inactive) | > 100 µM (inactive) | > 100 µM (inactive) | > 100 µM (inactive) | > 100 µM (inactive) | > 100 µM (inactive) | > 100 µM (inactive) | > 100 µM (inactive) | –
3 | Nc1ccc(S(=O)(=O)Nc2nnc(S(N)(=O)=O)s2)cc1 | – | 34.5 µM (inactive) | > 100 µM (inactive) | > 100 µM (inactive) | > 100 µM (inactive) | > 100 µM (inactive) | > 100 µM (inactive) | – | – | – | > 100 µM (inactive) | > 100 µM (inactive) | > 100 µM (inactive) | – | > 100 µM (inactive) | – | – | > 100 µM (inactive) | > 100 µM (inactive) | –
4 | COc1cc2c3c(c1OC)-c1ccccc1C(C(OC(C)=O)c1ccccc1)C3N(C)CC2 (centres undefined) | 43.4 µM (inactive) | 21 µM (inactive) | – | 38.7 µM (inactive) | 51.2 µM (inactive) | > 100 µM (inactive) | – | – | > 100 µM (inactive) | 31.8 µM (inactive) | > 100 µM (inactive) | 30.3 µM (inactive) | 93.8 µM (inactive) | > 10 µM (inactive) | 44.9 µM (inactive) | 58.5 µM (inactive) | 18.1 µM (inactive) | 5.4 µM (inactive) | 38.3 µM (inactive) | –
5 | COc1cc2c(cc1OC)C1(c3ccccc3)ON=C(c3ccccc3)N1CS2 (centres undefined) | > 100 µM (inactive) | 39.4 µM (inactive) | – | > 100 µM (inactive) | 46 µM (inactive) | > 100 µM (inactive) | – | – | > 100 µM (inactive) | > 100 µM (inactive) | > 100 µM (inactive) | > 100 µM (inactive) | > 100 µM (inactive) | 52.7 µM (inactive) | > 100 µM (inactive) | > 100 µM (inactive) | > 100 µM (inactive) | 16.1 µM (inactive) | 55.2 µM (inactive) | –
6 | CCOC(=O)NC(=O)c1cn(CC(=O)NCC(=O)NCC(=O)NCCCN2CCN(CCCNC(=O)CNC(=O)CNC(=O)Cn3cc(C(=O)NC(=O)OCC)c(=O)[nH]c3=O)CC2)c(=O)[nH]c1=O | > 100 µM (inactive) | > 100 µM (inactive) | – | > 100 µM (inactive) | > 100 µM (inactive) | > 100 µM (inactive) | – | – | > 100 µM (inactive) | > 100 µM (inactive) | > 100 µM (inactive) | > 100 µM (inactive) | > 100 µM (inactive) | > 100 µM (inactive) | > 100 µM (inactive) | > 100 µM (inactive) | > 100 µM (inactive) | > 100 µM (inactive) | > 100 µM (inactive) | –
7 | CC(=O)NC(NCCN)(c1ccccc1)c1ccccc1 | – | 16.9 µM (inactive) | > 100 µM (inactive) | > 100 µM (inactive) | > 100 µM (inactive) | > 100 µM (inactive) | > 100 µM (inactive) | – | – | > 100 µM (inactive) | 67.9 µM (inactive) | > 100 µM (inactive) | > 100 µM (inactive) | > 100 µM (inactive) | > 100 µM (inactive) | > 100 µM (inactive) | > 100 µM (inactive) | > 100 µM (inactive) | > 100 µM (inactive) | > 100 µM (inactive)
8 | Cc1cccc2c1Oc1cc(Cl)ccc1C2NC(=O)CCN1CCCCC1 (centres undefined) | > 10 µM (inactive) | 2.02 µM (inactive) | 15.5 µM (inactive) | 19.1 µM (inactive) | 17.7 µM (inactive) | – | > 10 µM (inactive) | 14.6 µM (inactive) | > 10 µM (inactive) | 15.6 µM (inactive) | 17.8 µM (inactive) | 15 µM (inactive) | 26.2 µM (inactive) | 15.1 µM (inactive) | 15.6 µM (inactive) | 16 µM (inactive) | 14.9 µM (inactive) | 15.7 µM (inactive) | 12.6 µM (inactive) | –
9 | Cc1n[nH]c(=O)n1/N=C/c1ccc([N+](=O)[O-])o1 | 5.58 µM (inactive) | – | 17.4 µM (inactive) | 13.8 µM (inactive) | 11.6 µM (inactive) | 28.2 µM (inactive) | 10.4 µM (inactive) | 29 µM (inactive) | – | 11.2 µM (inactive) | 21.4 µM (inactive) | 8.59 µM (inactive) | 17.4 µM (inactive) | 8.02 µM (inactive) | 8.85 µM (inactive) | 13 µM (inactive) | 3.56 µM (inactive) | – | 12.9 µM (inactive) | –
10 | CCCCCCCCCC[S+]([O-])CC(CO)NC(=O)/C=C/c1c(C)nc(O)nc1O (centres undefined) | – | 0.189 µM (active) | 4.43 µM (inactive) | 0.504 µM (active) | 11 µM (inactive) | 1.38 µM (inactive) | 43.4 µM (inactive) | 1.43 µM (inactive) | 0.959 µM (active) | 1.21 µM (inactive) | 1.71 µM (inactive) | 0.247 µM (active) | 0.149 µM (active) | 0.501 µM (active) | 0.877 µM (active) | 1.33 µM (inactive) | 0.918 µM (active) | 0.815 µM (active) | 1.36 µM (inactive) | –
11 | O=C(Nc1ccc(Sc2ccc(/N=N/c3c(O)c(S(=O)(=O)O)cc4cc(S(=O)(=O)O)ccc34)cc2)cc1)c1ccc(/N=N/c2c(O)ccc3c(S(=O)(=O)O)cc(S(=O)(=O)O)cc23)cc1 | 19.8 µM (inactive) | 78 µM (inactive) | – | 19 µM (inactive) | 21.7 µM (inactive) | > 100 µM (inactive) | – | – | 32.7 µM (inactive) | 48.1 µM (inactive) | 33.4 µM (inactive) | 15.8 µM (inactive) | 41 µM (inactive) | 10.1 µM (inactive) | 15.5 µM (inactive) | 11.2 µM (inactive) | 7.5 µM (inactive) | 10.3 µM (inactive) | 42.1 µM (inactive) | –
12 | COC(=O)C1CCC(C)CC1=O (centres undefined) | > 100 µM (inactive) | > 100 µM (inactive) | – | > 100 µM (inactive) | > 100 µM (inactive) | > 100 µM (inactive) | – | – | > 100 µM (inactive) | > 100 µM (inactive) | > 100 µM (inactive) | > 100 µM (inactive) | > 100 µM (inactive) | > 100 µM (inactive) | > 100 µM (inactive) | > 100 µM (inactive) | > 100 µM (inactive) | > 100 µM (inactive) | > 100 µM (inactive) | –
13 | Nc1nc2ccc(OCC(O)CN3CCCCC3)cc2[n+]([O-])n1 (centres undefined) | > 100 µM (inactive) | > 100 µM (inactive) | > 100 µM (inactive) | > 100 µM (inactive) | > 100 µM (inactive) | – | > 100 µM (inactive) | > 100 µM (inactive) | – | > 100 µM (inactive) | > 100 µM (inactive) | > 100 µM (inactive) | – | > 100 µM (inactive) | – | > 100 µM (inactive) | > 100 µM (inactive) | > 100 µM (inactive) | > 100 µM (inactive) | –
14 | COC(=O)CCCCCOS(=O)(=O)c1ccc(C)cc1 | > 100 µM (inactive) | > 100 µM (inactive) | – | > 100 µM (inactive) | > 100 µM (inactive) | > 100 µM (inactive) | – | – | > 100 µM (inactive) | > 100 µM (inactive) | > 100 µM (inactive) | > 100 µM (inactive) | > 100 µM (inactive) | > 100 µM (inactive) | > 100 µM (inactive) | > 100 µM (inactive) | > 100 µM (inactive) | > 100 µM (inactive) | > 100 µM (inactive) | –
15 | CCCCCCCCCCCCC(CC)CCCCC(=O)O (centres undefined) | > 100 µM (inactive) | > 73.3 µM (inactive) | – | > 78.7 µM (inactive) | > 100 µM (inactive) | > 100 µM (inactive) | – | – | > 100 µM (inactive) | > 100 µM (inactive) | > 100 µM (inactive) | > 58.3 µM (inactive) | > 100 µM (inactive) | 40.6 µM (inactive) | > 65.5 µM (inactive) | > 100 µM (inactive) | > 100 µM (inactive) | > 63.1 µM (inactive) | > 65.6 µM (inactive) | –
16 | COc1ccc(CN(O)C2C(CO)OC(n3cc(I)c(=O)[nH]c3=O)C2O)cc1 (centres undefined) | > 100 µM (inactive) | > 100 µM (inactive) | – | > 100 µM (inactive) | > 100 µM (inactive) | > 100 µM (inactive) | – | – | > 100 µM (inactive) | > 100 µM (inactive) | > 100 µM (inactive) | > 100 µM (inactive) | > 100 µM (inactive) | > 100 µM (inactive) | > 100 µM (inactive) | > 100 µM (inactive) | > 100 µM (inactive) | > 100 µM (inactive) | > 100 µM (inactive) | –
